{
  "source": "patent US8288366B2",
  "about": "“Formulation for hair growth” (priority 2006, dated 2012)",
  "origin": "cited, not measured here",
  "tested_on": "mice with a mutant hairless gene",
  "details": "applied topically",
  "data": [
    {"smiles": "N[C@@H](Cc1cc(I)c(Oc2ccc(O)c(I)c2)c(I)c1)C(=O)O", "note": "[T3, triiodothyronine]", "values": [
      {"measurement": "hair growth", "result": "stimulate hair growth"}
    ]}
  ]
}
